According to ChEMBL document CHEMBL1201862, “PubChem BioAssay data set” (2004):
The source made the active and inactive calls.

Tests used:
[1] = target: T1, Intestinal-type alkaline phosphatase (Homo sapiens, UniProt P09923); assay: human intestinal alkaline phosphatase activators, dose response, biochemical, luminescence, uHTS hits (AID 463120); assay type: functional
Mu-type opioid receptor [2] = target: T2, Mu-type opioid receptor (Homo sapiens, UniProt P35372); assay: mu opioid receptor activators, image-based, SAR follow-up (AID 2352); assay type: functional
T2 sequence (P35372 whole entry): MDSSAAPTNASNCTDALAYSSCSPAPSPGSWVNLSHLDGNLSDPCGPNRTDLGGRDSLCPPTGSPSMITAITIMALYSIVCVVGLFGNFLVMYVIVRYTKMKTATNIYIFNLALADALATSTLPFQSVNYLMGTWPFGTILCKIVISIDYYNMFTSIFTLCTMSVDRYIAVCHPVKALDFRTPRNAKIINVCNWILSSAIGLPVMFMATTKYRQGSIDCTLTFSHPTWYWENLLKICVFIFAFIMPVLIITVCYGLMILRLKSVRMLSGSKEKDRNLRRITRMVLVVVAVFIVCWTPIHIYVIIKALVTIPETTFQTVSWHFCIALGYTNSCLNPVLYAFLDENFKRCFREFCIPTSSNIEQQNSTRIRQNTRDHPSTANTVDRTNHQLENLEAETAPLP

[3] = target: T3, Delta-type opioid receptor (Homo sapiens, UniProt P41143); assay: DOR agonists, SAR follow-up, image-based (AID 2370); assay type: functional
T3 sequence (P41143 whole entry): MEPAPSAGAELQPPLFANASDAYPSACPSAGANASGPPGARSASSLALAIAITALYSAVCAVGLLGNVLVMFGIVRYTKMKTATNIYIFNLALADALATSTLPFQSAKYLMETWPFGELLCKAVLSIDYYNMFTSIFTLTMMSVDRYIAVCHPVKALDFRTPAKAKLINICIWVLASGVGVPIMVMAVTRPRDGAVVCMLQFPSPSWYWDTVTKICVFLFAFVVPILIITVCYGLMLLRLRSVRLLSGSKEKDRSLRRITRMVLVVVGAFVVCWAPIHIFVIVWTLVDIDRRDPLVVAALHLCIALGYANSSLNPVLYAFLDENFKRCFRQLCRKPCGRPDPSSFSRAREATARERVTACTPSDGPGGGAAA

[4] = target: T4, Kappa-type opioid receptor (Homo sapiens, UniProt P41145); assay: kappa opioid receptor blockers, image-based, SAR follow-up (AID 2348); assay type: functional
T4 sequence (P41145 whole entry): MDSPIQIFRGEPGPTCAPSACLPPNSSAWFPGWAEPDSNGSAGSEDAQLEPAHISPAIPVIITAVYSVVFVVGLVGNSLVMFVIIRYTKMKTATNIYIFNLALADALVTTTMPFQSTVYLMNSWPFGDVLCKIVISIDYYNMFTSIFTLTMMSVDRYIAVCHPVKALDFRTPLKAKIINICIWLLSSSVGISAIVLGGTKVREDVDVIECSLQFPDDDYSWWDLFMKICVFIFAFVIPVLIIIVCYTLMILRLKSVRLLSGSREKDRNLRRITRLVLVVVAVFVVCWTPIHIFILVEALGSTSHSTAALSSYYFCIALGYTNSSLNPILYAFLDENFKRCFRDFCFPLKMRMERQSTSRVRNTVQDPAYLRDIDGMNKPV

Mu-type opioid receptor [5] = target: T2, Mu-type opioid receptor; assay: mu opioid receptor blockers – image-based, SAR follow-up (AID 2420); assay type: functional;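 further: compounds added before stimulation of receptor with agonist DAMGO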
[6] = target: T4, Kappa-type opioid receptor; assay: kappa opioid receptor activation potency – imaging, image-based, SAR follow-up (AID 2359); assay type: functional
[7] = target: T3, Delta-type opioid receptor; assay: delta opioid receptor blockers – image-based, SAR follow-up (AID 2357); assay type: functional
[8] = target: T4, Kappa-type opioid receptor; assay: kappa opioid receptor blockers, cell-based, luminescence, beta-arrestin, SAR follow-up (AID 2285); assay type: functional
[9] = target: T5, G-protein coupled receptor 35 (Homo sapiens, UniProt Q9HC97); assay: SAR analysis of Agonists of the GPR35 Receptor using an Image-Based Assay - Set 4. [Related pubchem assays (depositor defined):AID2013, AID2026]; assay type: functional
T5 sequence (Q9HC97 whole entry): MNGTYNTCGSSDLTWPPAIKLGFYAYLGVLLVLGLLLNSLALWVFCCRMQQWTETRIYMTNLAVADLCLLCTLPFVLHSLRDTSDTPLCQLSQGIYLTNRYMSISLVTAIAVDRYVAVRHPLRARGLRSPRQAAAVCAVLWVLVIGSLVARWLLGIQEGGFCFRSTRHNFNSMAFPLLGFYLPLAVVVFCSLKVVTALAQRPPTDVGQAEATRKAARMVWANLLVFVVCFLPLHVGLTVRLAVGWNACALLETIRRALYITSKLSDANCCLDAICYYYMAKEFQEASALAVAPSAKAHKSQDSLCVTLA

Cannabinoid receptor 1 [10] = target: T6, Cannabinoid receptor 1 (Homo sapiens, UniProt P21554); assay: SAR analysis of agonists of the Cannabinoid Receptor 1 using an Image-Based Assay - Set 4. [Related pubchem assays (depositor defined):AID2013, AID2026]; assay type: functional
T6 sequence (P21554 whole entry): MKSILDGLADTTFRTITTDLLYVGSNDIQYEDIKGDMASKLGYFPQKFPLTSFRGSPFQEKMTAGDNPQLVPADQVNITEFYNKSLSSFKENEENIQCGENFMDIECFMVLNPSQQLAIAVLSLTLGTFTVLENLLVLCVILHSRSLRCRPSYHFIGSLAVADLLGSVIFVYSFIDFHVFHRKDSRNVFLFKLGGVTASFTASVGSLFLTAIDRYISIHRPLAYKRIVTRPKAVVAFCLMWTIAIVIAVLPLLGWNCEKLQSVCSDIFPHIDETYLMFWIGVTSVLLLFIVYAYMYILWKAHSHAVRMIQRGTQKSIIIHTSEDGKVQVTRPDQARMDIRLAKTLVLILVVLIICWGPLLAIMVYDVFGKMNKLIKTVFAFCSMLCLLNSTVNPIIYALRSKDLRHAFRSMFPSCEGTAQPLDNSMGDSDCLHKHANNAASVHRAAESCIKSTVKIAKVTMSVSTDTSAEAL

[11] = target: T5, G-protein coupled receptor 35; assay: SAR analysis of Antagonists of the GPR35 Receptor using an Image-Based Assay - Set 6. [Related pubchem assays (depositor defined):AID2013, AID2026]; assay type: functional
Cannabinoid receptor 1 [12] = target: T6, Cannabinoid receptor 1; assay: SAR analysis of antagonists of the Cannabinoid Receptor 1 using an Image-Based Assay - Set 4. [Related pubchem assays (depositor defined):AID2013, AID2026]; assay type: functional
[13] = target: G-protein coupled receptor 55 (Homo sapiens, UniProt Q9Y2T6); assay: SAR Analysis of Selective Antagonists of GPR55 using an Image-Based Assay - Set 4. [Related pubchem assays (depositor defined):AID2013, AID2026]; assay type: functional;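 further: antagonism of response to 5 µM lysophosphatidylinositol agonist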
Chain of G-protein coupled receptor 55 (Q9Y2T6 whole entry): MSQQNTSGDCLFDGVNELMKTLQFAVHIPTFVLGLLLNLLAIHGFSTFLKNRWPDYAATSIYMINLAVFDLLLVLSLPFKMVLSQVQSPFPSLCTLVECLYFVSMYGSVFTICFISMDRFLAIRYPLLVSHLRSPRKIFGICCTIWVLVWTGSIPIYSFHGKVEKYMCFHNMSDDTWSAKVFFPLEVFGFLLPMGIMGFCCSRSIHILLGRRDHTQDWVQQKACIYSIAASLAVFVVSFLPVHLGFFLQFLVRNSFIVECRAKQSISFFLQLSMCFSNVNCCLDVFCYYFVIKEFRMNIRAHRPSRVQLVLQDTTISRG

Cannabinoid receptor 2 [14] = target: T7, Cannabinoid receptor 2 (Homo sapiens, UniProt P34972); assay: SAR analysis of antagonists of the Cannabinoid Receptor 2 using an Image-Based Assay - Set 3. [Related pubchem assays (depositor defined):AID2013, AID2026]; assay type: functional
T7 sequence (P34972 whole entry): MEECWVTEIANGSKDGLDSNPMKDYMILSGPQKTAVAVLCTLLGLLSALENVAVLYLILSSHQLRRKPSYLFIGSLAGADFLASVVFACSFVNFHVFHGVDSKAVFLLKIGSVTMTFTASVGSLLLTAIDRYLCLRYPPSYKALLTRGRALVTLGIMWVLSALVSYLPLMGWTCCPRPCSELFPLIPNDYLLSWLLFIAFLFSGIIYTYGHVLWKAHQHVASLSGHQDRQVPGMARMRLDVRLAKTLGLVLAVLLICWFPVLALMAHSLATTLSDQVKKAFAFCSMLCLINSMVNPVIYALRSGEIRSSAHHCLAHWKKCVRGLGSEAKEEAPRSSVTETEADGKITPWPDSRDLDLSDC

Cannabinoid receptor 2 [15] = target: T7, Cannabinoid receptor 2; assay: SAR analysis of agonists of the Cannabinoid Receptor 2 using an Image-Based Assay - Set 3. [Related pubchem assays (depositor defined):AID2013, AID2026]; assay type: functional
[16] = target: Intestinal-type alkaline phosphatase (Mus musculus, UniProt P24822); assay: PubChem AID 488874; assay type: functional
Chain of Intestinal-type alkaline phosphatase (Mus musculus, UniProt P24822) (P24822 whole entry): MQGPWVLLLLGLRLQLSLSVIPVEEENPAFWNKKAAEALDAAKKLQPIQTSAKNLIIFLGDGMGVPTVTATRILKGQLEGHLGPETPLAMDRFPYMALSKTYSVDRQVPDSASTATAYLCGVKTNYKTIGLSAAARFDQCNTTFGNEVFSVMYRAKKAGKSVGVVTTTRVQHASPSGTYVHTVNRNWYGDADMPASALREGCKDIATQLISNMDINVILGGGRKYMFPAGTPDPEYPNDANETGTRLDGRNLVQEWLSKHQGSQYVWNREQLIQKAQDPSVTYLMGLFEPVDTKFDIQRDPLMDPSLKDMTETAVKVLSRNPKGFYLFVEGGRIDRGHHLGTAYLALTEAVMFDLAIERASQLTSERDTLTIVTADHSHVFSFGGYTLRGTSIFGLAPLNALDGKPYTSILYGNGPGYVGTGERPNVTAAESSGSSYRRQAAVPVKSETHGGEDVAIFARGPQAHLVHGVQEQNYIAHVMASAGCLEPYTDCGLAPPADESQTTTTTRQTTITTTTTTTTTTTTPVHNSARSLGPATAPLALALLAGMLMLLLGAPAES

[17] = target: T1, Intestinal-type alkaline phosphatase; assay: inhibition of human intestinal alkaline phosphatase – biochemical, luminescent, uHTS hits, set 2, dose response (AID 488793); assay type: functional
[18] = target: T1, Intestinal-type alkaline phosphatase; assay: Dose Response confirmation of uHTS hits from a small molecule inhibitors of human intestinal alkaline phosphatase via a luminescent assay. [Related pubchem assays (depositor defined):AID2544, AID2574]; assay type: functional
[19] = target: T8, Alkaline phosphatase, tissue-nonspecific isozyme (Homo sapiens, UniProt P05186); assay: inhibition of tissue-nonspecific alkaline phosphatase – biochemical, dose response (AID 488882); assay type: functional
T8 sequence (P05186 whole entry): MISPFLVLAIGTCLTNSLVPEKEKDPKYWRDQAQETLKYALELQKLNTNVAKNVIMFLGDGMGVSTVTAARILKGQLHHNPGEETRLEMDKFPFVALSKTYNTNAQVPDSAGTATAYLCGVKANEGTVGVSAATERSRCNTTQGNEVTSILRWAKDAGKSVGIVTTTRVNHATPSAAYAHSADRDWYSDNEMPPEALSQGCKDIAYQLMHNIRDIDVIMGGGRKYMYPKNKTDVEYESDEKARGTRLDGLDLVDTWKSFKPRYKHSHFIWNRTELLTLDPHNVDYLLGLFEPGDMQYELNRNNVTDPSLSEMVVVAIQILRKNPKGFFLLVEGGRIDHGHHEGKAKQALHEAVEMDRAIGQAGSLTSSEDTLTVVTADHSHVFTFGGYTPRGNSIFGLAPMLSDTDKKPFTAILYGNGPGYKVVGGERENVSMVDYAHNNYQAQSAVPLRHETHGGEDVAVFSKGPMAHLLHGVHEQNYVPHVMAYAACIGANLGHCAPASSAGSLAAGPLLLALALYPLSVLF

[20] = target: Dual specificity tyrosine-phosphorylation-regulated kinase 1A (Rattus norvegicus, UniProt Q63470); assay type: biochemical, Homo sapiens
[21] = target: T9, Rac GTPase-activating protein 1 (Homo sapiens, UniProt Q9H0H5); assay: blockers of MgcRacGAP-driven Rac1 GTP hydrolysis – biochemical, ADP Hunter fluorescence, primary and confirmatory, confirmation (AID 624330); assay type: functional
T9 sequence (Q9H0H5 whole entry): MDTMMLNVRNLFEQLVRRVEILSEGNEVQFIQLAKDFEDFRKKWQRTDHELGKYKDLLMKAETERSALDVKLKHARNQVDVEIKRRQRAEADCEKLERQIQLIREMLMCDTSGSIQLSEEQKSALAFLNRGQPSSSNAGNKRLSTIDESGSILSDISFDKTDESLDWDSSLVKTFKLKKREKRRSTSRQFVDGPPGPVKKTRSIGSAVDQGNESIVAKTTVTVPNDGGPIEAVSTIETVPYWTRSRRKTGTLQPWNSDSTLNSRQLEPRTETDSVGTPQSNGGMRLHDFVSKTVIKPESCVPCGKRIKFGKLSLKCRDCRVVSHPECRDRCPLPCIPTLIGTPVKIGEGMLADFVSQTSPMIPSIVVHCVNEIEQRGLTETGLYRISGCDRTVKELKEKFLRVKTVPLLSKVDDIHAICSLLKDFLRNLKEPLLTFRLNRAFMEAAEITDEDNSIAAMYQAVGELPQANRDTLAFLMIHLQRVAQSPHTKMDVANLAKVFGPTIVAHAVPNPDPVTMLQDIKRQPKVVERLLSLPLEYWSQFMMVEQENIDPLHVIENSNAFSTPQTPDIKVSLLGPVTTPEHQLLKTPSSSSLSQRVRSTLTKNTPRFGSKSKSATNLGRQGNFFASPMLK

[22] = target: T10, Microphthalmia-associated transcription factor (Homo sapiens, UniProt O75030); assay: reducers of TRPM1 reporter luminescence, concentration series – cell-based, SK-MEL-5, cherry-picked, set 3, MITF inhibitor project, dose response (AID 493073); assay type: functional;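 further: SK-MEL-5 melanoma cells with luciferase driven by the MITF target TRPM1 promoter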
T10 sequence (O75030 whole entry): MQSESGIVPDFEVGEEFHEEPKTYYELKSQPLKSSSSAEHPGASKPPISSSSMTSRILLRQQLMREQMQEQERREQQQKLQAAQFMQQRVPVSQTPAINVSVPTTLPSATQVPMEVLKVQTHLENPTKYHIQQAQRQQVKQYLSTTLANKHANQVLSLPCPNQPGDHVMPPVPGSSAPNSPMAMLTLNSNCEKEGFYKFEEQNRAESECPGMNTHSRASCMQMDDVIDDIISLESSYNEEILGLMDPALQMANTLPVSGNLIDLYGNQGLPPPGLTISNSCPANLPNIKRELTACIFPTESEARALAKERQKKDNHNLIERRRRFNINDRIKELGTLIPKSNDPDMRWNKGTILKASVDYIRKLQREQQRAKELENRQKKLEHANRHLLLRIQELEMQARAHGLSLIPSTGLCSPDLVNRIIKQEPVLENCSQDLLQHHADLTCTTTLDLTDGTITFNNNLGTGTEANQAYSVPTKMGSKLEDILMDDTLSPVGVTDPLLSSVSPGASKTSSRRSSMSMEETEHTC

[23] = target: T11, Endoribonuclease toxin MazF (Escherichia coli K-12, UniProt P0AE70); assay: activation of MazEF endoribonuclease cleavage – biochemical, fluorescence, single-stranded RNA substrate, uHTS hits, dose response (AID 588481); assay type: functional
T11 sequence (P0AE70 whole entry): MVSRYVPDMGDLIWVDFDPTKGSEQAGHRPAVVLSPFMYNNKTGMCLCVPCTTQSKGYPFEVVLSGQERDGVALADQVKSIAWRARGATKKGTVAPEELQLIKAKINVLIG

[24] = target: T11, Endoribonuclease toxin MazF; assay: substrate-only fluorescence increase artefacts – biochemical, single-stranded RNase substrate, counter-screen for MazEF activator project, dose response (AID 588502); assay type: functional

T1 sequence (P09923 whole entry): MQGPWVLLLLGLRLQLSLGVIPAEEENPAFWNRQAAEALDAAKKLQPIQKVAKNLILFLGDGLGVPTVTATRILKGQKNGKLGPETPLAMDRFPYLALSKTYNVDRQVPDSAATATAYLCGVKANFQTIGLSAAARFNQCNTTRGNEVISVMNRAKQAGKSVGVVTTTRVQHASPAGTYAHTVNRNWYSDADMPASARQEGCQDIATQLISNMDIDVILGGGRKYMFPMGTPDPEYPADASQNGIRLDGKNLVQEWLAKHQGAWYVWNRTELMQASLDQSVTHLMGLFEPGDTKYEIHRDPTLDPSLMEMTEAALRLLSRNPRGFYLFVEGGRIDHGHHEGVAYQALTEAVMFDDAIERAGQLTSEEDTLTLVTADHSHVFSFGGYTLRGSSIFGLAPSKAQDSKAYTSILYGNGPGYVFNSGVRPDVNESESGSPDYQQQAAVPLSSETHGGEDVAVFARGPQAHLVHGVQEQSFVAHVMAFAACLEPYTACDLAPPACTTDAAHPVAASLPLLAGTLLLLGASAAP

SMILES: CC(C)CCNc1ncnc2c1nnn2Cc1ccccc1Cl
- EC50 [1]: > 100 µM (inactive)

SMILES: O=C(NC(NC(=S)Nc1ccc(Cl)c(Cl)c1)C(Cl)(Cl)Cl)OCc1ccccc1 (centres undefined)
- EC50 (Mu-type opioid receptor [2]): > 32 µM (inactive)
- EC50 [3]: > 32 µM (inactive)
- IC50 [4]: 11.9 µM (inactive)
- IC50 (Mu-type opioid receptor [5]): > 32 µM (inactive)
- EC50 [6]: > 32 µM (inactive)
- IC50 [7]: > 32 µM (inactive)
- IC50 [8]: > 10 µM (inactive)

SMILES: CCOc1ccc(-c2n[nH]c(C)c2-c2ccc(OC)cc2)c(O)c1
- EC50 [9]: 25.5 µM (inactive)
- EC50 (Cannabinoid receptor 1 [10]): > 32 µM (inactive)
- IC50 [11]: > 32 µM (inactive)
- IC50 (Cannabinoid receptor 1 [12]): 0.85 µM (active)
- IC50 [13]: 15.6 µM (inactive)
- IC50 (Cannabinoid receptor 2 [14]): 3.79 µM (active)
- EC50 (Cannabinoid receptor 2 [15]): 31.6 µM (inactive)

SMILES: COc1ccc(C=C2C(=O)c3ccccc3C2=O)cc1O
- IC50 [16]: 15 µM (active)
- IC50 [17]: 15.6 µM (active)
- IC50 [18]: 12.7 µM (inactive)
- IC50 [19]: 15.6 µM (active)
- AC50 [20]: 1.7 µM (active)
- IC50 [21]: 46.8 µM (active)

SMILES: CC(C)=CCc1c(O)ccc2c1OC(c1ccc(O)c(O)c1)CC2=O (centres undefined)
- IC50 [16]: 11.5 µM (active)
- IC50 [17]: 1.97 µM (active)
- IC50 [18]: 6.64 µM (active)
- IC50 [19]: 88.8 µM (active)
- AC50 [22]: 11.7 µM (active)
- EC50 [23]: > 99 µM (inactive)
- EC50 [24]: > 99 µM (inactive)
- AC50 [20]: 3.68 µM (active)
